Tests used:
[1] = biological target: T1, E. coli gamma-glutamylcysteine synthetase (Escherichia coli, UniProt P0A6W9); test: Inactivation of E. coli gamma-GCS by homocysteine sulfoximines (preincubation with ATP, residual activity by coupled PK/LDH assay); assay type: biochemical; conditions: on an active isomer basis
T1 construct: made in house
Procedure: E. coli gamma-GCS was isolated from bacterial cells engineered to overexpress the enzyme; the isolation procedure was similar to that used previously to isolate mammalian gamma-GCS. […] The enzyme was assayed in reaction mixtures (final volume=1.0 ml) containing: 150 mM Tris·HCl, pH 8.2, 100 mM KCl, 25 mM MgCl2, 7.5 mM ATP, 7.5 mM phosphoenolpyruvate, 0.3 mM EDTA, 10 mM L-glutamate, 10 mM L-α-aminobutyrate (an L-cysteine analog), 0.3 mM NADH, 5 IU pyruvate kinase, and 5 IU lactate dehydrogenase. Reaction was initiated by adding gamma-GCS; in control studies, L-α-aminobutyrate was omitted from the reaction mixture. In this assay, pyruvate kinase (PK) and lactate dehydrogenase (LDH) are added in excess to detect formation of ADP, one of the products of the gamma-GCS reaction. The relevant enzyme reactions are shown as equations 1–3 below. Oxidation of NADH to NAD^+ is followed and quantitated spectrophotometrically at 340 nm (1 μmol oxidation gives ΔOD=−6.2) and is directly proportional to product formation by gamma-GCS. [drawing 2]
Inhibition by homocysteine sulfoximines was carried out by preincubating the E. coli gamma-GCS with potential inhibitors in the presence of ATP and then removing aliquots of that mixture at specific times and assaying for residual activity using the assay procedure described above. The preincubation reaction mixtures contained (final volume=400 μl) the following: 210 mM Tris·HCl, pH 8.2, 142 mM KCl, 36 mM MgCl2, 10 mM ATP, 0.4 mM EDTA, various amounts of sulfoximine, and gamma-GCS. At intervals, 50 μl aliquots were removed and added to 1.0 ml assay reaction mixtures to determine residual activity spectrophotometrically. Results of a study indicate that E. coli gamma-GCS loses about 27% of its activity over 30 minutes in the absence of added inhibitors; this loss of activity represents an inherent instability in the enzyme when incubated under these reaction conditions in this particular experiment. […]

rat kidney gamma-GCS = biological target: T2, rat kidney gamma-GCS (Rattus norvegicus, UniProt P19468); test: Inhibition of mammalian gamma-GCS, protocol similar to E. coli enzyme; assay type: biochemical
T2 construct: highly purified rat kidney gamma-GCS; from tissue; host or cells: rat kidney

E. coli [2] = test: Patient with E. coli caused gastroenteritis with bloody diarrhea; assay type: in vivo
Procedure: A patient with E. coli caused gastroenteritis with bloody diarrhea is administered α-ethyl-L-buthionine-S-sulfoximine (hereinafter α-ethyl BSO) orally at a dose of 10 mmol/kg body weight four times a day.
A patient with E. coli caused gastroenteritis and bloody diarrhea is administered α-ethyl BSO orally at a dose of 10 mmol/kg body weight four times a day. In addition, the patient is given chloramphenicol orally at a dose of 12.5 mg/kg four times a day. Bloody diarrhea resolved in 36 hours.

E. coli [3] = test: Patients with E. coli septicemia; assay type: in vivo
Procedure: A person with fever, mild hypotension, and moderate hematuria has blood and urine cultures that are positive for E. coli. They are given a diagnosis of E. coli septicemia and urinary tract infection. […]
A person with E. coli sepsis presents feeling nauseated and gravely ill. However, their blood pressure is stable. They receive a standard regimen of IV antibiotics, including ampicillin and gentamicin as well as the siderophore ferrioxamine B at a dose of 10 mg/kg.
A person with E. coli sepsis presents with a blood pressure of 80/50 mm Hg. Broad spectrum antibiotics are initiated including ampicillin and gentamicin. […] The patient then receives an intravenous dose of nitrosated chloramphenicol, 12.5 mg four times/day IV together with methylene blue IV at a dose of 5 mg/kg as well as fluid support.

Chlamydia trachomatous = test: Patients with Chlamydia cervicitis and vaginitis; assay type: in vivo; conditions: α-ethyl BSO 4 mmol/kg and nitrate ester of chloramphenicol 12.5 mg/kg, each four times a day p.o.
Description: A person with a history of multiple sexual partners and recurrent urinary tract infections presents with cervicitis and vaginitis of four days duration. The patient complains of pain and vaginal discharge.

rickettsia = assay type: in vivo; conditions: 4 mmol/kg four times a day p.o. with chloramphenicol 12.5 mg four times a day p.o.
oral thrush = test: Patients with oral thrush; assay type: in vivo; conditions: 2 cc of 50 mM, swish and spit, three times/day
Procedure: An immunocompromised person who is status-post recent chemotherapy develops oral thrush.
A person with leukemia develops oral thrush and is given 2 cc of 50 mM S-nitrosoglutathione, swish and spit, three times/day.
An immunocompromised person with HIV and a low CD4 count develops oral thrush. They are given 5 cc of a solution of 10 mM nitrate.

[4] = test system: mixed flora and gram-negativerods; test: Diabetic patient with infected skin ulcer; assay type: in vivo; conditions: topical cream with S-nitrosoglutathione, oxidized glutathione and dinitrophenacyl glutathione
Description: A patient with diabetes develops a skin ulcer on the lower aspect of their left leg. Cultures grow mixed flora and gram-negativerods. A topical cream is applied that contains S-nitrosoglutathione, oxidized glutathione and the glutathione S-conjugate dinitrophenacyl glutathione.

trypanosomes = test: Patient with trypanosome infection; assay type: in vivo; conditions: L-buthionine-S-sulfoximine 3 mmol/kg p.o. every 4 hours and S-nitrosoglutathione iv 10 mg/kg every 8 hours, one week
Procedure: A person presents with high fever, moderate lymphadenopathy and reports that they have lost 40 pounds in the last month, two months after returning from a safari in sub-Saharan Africa. On questioning, the patient reports having developed during the safari an ulcer on their forearm two days following a bite by a fly. […] The patient is hospitalized and given L-buthionine-S-sulfoximine at a dose of 3 mmol/kg p.o. every 4 hours for one week. In addition, the patient receives S-nitrosoglutathione iv at a dose of 10 mg/kg every 8 hours for one week.

S. typhimurium = conditions: J. Gen. Microbiol. 72, 291–301 (1972); cited from earlier work
Streptomycetes = test: Immunocompromised patient with Streptomycetes lesion; assay type: in vivo; conditions: 4 mmol/kg three times a day p.o. with trimethoprim and sulfamethoxazole, one month
Procedure: An immunocompromised patient recovering from bone marrow transplantation develops a lump in their cheek at a place previously scratched by a garden implement. A culture obtained from the lump is positive for Streptomycetes. The patient is given DL-α-amino-δ-butylthio valeric acid-SR-sulfoximine at a dose of 4 mmol/kg body weight three times a day p.o. The patient is also given trimethoprim (160 mg twice a day) and sulfamethoxazole (800 mg twice a day) for one month.

Actinomycetes israelii = test: Patient infected with Actinomycetes israelii; assay type: in vivo; conditions: 1 mg/kg four times per day i.v.
Description: A patient infected with Actinomycetes israelii has a low-grade fever, non-productive cough, and occasional hemoptysis.

[5] = test system: metastatic malignant melanoma; test: Patient with metastatic malignant melanoma; assay type: in vivo; conditions: L-buthionine-S-sulfoximine 2 mmol/kg p.o. every 4 hours and hydroxyurea 10 mg/kg p.o., one week
Procedure: A person […] and a history of surgery five years previously to remove malignant melanotic nevi from their upper back and chest is found to have blood in their stool on routine physical examination. […] The patient is administered L-buthionine-S-sulfoximine (2 mmol/kg) p.o. every 4 hours for one week and is given 10 mg/kg of hydroxyurea p.o. 1 hour after every third dose of L-buthionine-S-sulfoximine. […] The patient shown no further evidence of metastases during a six month follow-up.

mycoplasma = conditions: 250 mg three times a day
athlete's foot = test: Patients with athlete's foot; assay type: in vivo; conditions: 50 mM added to miconazole cream
Procedure: A runner develops athlete's foot. […] They substitute a cream containing the same ingredients, with the exception that S-nitroso-N-acetyl cysteine has been added so as to be present at a concentration of 50 mM.
A marathon runner develops athlete's foot. They treat themself with a topical mixture of inorganic nitrite, acetic acid and thiol in a cream base.

E. coli [6] = conditions: chloramphenicol alone; cited from earlier work

T2 sequence (P19468 whole entry): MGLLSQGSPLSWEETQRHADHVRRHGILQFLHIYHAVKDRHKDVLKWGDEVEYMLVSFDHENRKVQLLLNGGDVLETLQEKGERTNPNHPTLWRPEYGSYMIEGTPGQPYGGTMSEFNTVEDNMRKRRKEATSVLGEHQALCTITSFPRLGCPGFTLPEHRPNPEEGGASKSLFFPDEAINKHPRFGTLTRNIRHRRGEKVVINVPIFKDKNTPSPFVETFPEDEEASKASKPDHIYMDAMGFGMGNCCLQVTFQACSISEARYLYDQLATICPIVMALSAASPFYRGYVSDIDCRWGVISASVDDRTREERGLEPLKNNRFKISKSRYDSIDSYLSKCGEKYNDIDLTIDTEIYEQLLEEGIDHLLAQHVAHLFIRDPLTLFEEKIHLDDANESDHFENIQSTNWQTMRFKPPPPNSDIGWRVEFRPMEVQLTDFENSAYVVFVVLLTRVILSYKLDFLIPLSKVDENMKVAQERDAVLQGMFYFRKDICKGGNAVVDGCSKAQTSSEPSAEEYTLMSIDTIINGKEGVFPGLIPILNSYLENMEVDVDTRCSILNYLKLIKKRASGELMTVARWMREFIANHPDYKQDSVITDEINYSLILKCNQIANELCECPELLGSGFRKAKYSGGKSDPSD
T2 sequence (P48508 whole entry partner): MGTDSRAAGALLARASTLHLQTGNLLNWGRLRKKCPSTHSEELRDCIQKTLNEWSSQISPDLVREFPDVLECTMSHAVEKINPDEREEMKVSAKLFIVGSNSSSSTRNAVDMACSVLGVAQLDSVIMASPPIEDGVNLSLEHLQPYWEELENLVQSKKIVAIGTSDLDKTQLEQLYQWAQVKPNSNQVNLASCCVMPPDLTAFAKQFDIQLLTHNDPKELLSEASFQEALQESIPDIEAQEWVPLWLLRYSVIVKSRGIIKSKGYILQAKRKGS
T1 sequence (P0A6W9 whole entry): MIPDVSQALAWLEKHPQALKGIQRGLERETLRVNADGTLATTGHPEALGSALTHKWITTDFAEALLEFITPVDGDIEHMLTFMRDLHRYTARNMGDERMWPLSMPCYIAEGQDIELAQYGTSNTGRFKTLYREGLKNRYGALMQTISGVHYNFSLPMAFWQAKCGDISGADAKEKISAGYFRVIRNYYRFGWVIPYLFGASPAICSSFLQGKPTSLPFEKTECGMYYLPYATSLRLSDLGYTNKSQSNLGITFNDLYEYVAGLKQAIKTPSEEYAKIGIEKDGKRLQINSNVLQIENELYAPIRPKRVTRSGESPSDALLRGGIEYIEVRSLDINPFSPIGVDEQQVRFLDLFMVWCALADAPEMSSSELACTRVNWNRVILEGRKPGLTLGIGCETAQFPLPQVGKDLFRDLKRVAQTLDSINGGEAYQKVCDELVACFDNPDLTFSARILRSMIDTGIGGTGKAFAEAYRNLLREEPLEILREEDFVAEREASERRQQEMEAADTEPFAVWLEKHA

Compound: CCCCS(=N)(=O)CCC(N)(CC)C(=O)O [α-ethyl-L-buthionine-S-sulfoximine]
- effectiveness as inhibitor relative to L-S-BSO [1]: about 20%
- inhibitory activity relative to L-buthionine-S-sulfoximine (rat kidney gamma-GCS; expressed on the basis of the active isomer): about 0.1%
- time to resolution of bloody diarrhea (E. coli [2]; 10 mmol/kg orally four times a day plus chloramphenicol 12.5 mg/kg orally four times a day): 36 h
- clinical outcome (E. coli [2]; orally 10 mmol/kg four times a day): Bloody diarrhea resolved over four days
- clinical outcome (E. coli [3]; resistant to conventional antibiotics, 4 mmol/kg four times a day p.o. plus hyperbaric 100% oxygen, ampicillin and gentamicin continued): symptoms resolve within four days
- clinical outcome (E. coli [3]; septicemia and urinary tract infection, α-ethyl BSO 4 mmol/kg four times a day p.o., S-nitroso-gamma-methyl-L-homocysteine 50 μg/kg i.v., gentamicin): symptoms resolve and blood and urine cultures are negative for E. coli after two weeks
- time to resolution of infection (Chlamydia trachomatous): 10 days
- time until patient becomes well (rickettsia): 10 days

Compound: N[C@@H](CCC(=O)N[C@@H](CSN=O)C(=O)NCC(=O)O)C(=O)O [S-nitrosoglutathione]
- clinical outcome (oral thrush): much improved in three days
- clinical outcome [4]: culture of the ulcer becomes sterile over three days
- clinical outcome (trypanosomes): blood smear is free of trypanosomes

Compound: c1nc[nH]n1 [1,2,4-trazole]
- bacterial growth (S. typhimurium): inhibiting the growth of S. typhimurium

Compound: CCCCS(=N)(=O)CCCC(N)C(=O)O (racemic) [DL-α-amino-δ-butylthio valeric acid-SR-sulfoximine]
- clinical outcome (Streptomycetes): lesion in patient's cheek resolves completely

Compound: serinyl-S-nitrosocysteinyl-gluatamine
- clinical outcome (Actinomycetes israelii): symptoms resolve over three weeks

Compound: NC(=O)NO [hydroxyurea]
- reduction in size of metastatic tumor [5]: 30%

Compound: CC[C@H]1OC(=O)[C@H](C)[C@@H](O[C@H]2C[C@@](C)(OC)[C@@H](O)[C@H](C)O2)[C@H](C)[C@@H](O[C@@H]2O[C@H](C)C[C@H](N(C)C)[C@H]2O)[C@](C)(O)C[C@@H](C)C(=O)[C@H](C)[C@@H](O)[C@]1(C)O [erythromycin]
- clinical outcome (mycoplasma): symptoms linger

Compound: CC(=O)N[C@@H](CSN=O)C(=O)O [S-nitroso-N-acetyl cysteine]
- clinical outcome (athlete's foot): symptoms improve over seven days

Compound: CCCCS(=N)(=O)CCC(N)(CC)C(=O)O (racemic) [α-ethyl-DL-buthionine-SR-sulfoximine, α-Ethyl-D,L-buthionine-R,S-sulfoximine]
- effectiveness as inhibitor relative to L-buthionine-S-sulfoximine (rat kidney gamma-GCS; highly purified rat kidney enzyme, DL,SR mixture): 0.025%
- melting point: 203 to 205 °C

Compound: O=C(N[C@H](CO)[C@H](O)c1ccc([N+](=O)[O-])cc1)C(Cl)Cl [Chloramphenicol, chloramphenicol]
- usual time to effect (E. coli [6]): normally has effect in three days
